Columns and labels:
A/WSN/33 = test system: A/WSN/33; parameters: method as in PMID 20178582; details: cited from earlier work
[1] = test system: influenza virus polymerase PB2 subunit; parameters: method as in PMID 30102858; details: cited from earlier work
in vitro = details: dog
HK/68 (H3N2) = experiment: CPE inhibition assay in MDCK cells, H3N2; format: cell-based; details: Influenza A virus, 72 h
[2] = test system: influenza A/Puerto Rico/8/1934 (H1N1); experiment: CPE inhibition assay in MDCK cells, H1N1; format: cell-based; details: Influenza A virus, 72 h
[3] = test system: influenza virus ribonucleoprotein (RNP); parameters: method as in PMID 12755627; details: cited from earlier work
H3N2 influenza virus = test system: H3N2 influenza virus; parameters: method as in PMID 24134208; details: read-out: IC50 for the cytopathic effect (CPE) of H3N2 influenza virus; cited from earlier work

## O=C(O)c1cc(-c2ccc(Br)cc2)nc2ccc(Cl)cc12 [CSV0C019002]
A/WSN/33
  EC50: 4.27 µM

## O=c1oc2cc(O)cc(O)c2c2ccccc12 [Compound D715-2441, 1,3-Dihydroxy-6H-benzo[c]chromen-6-one]
[1]
  PB2 cap and m7 GTP binding: prevent PB2 cap and m7 GTP binding in a dose-dependent manner

## CCC(CC)O[C@@H]1C=C(C(=O)O)C[C@H](N)[C@H]1NC(C)=O [OC, Oseltamivir carboxylate, reference compound]
In vitro
  CC50 at 72 h: > 100 µM
HK/68 (H3N2)
  IC50: 0.01 µM
[2]
  IC50: 0.95 µM

## Nc1nc2c(c(=O)[nH]1)[n+](Cc1ccccc1)cn2CCCCO [RO0794238]
[3]
  IC50: 45 µM

## O=C(Nc1nc(-c2ccc(O)cc2)c(CCc2ccccc2)s1)c1cc(O)c(O)c(O)c1 [Str1614]
In vitro
  CC50 at 72 h: > 100 µM
HK/68 (H3N2)
  IC50: 19.6 ± 0.93 µM
[2]
  IC50: 26.3 ± 8.69 µM

## CCCCOc1ccc(-c2csc(Nc3ccc(CCC(=O)O)cc3)n2)cc1Cl [Str1916]
In vitro
  CC50 at 72 h: > 100 µM
HK/68 (H3N2)
  IC50: 17 ± 7.94 µM
[2]
  IC50: 4.82 ± 3.03 µM

## O=C(O)c1cc2ccccc2c(Cc2c(O)c(C(=O)O)cc3ccccc23)c1O [Str3107]
In vitro
  CC50: > 100 µM
HK/68 (H3N2)
  IC50: 45.7 ± 3.01 µM
[2]
  IC50: 18.2 ± 4.96 µM

## O=C(O)c1cccc([C@@H](c2ccc(O)c(C(=O)O)c2)C(Cl)(Cl)Cl)c1 [Str5776]
In vitro
  CC50 at 72 h: > 100 µM
HK/68 (H3N2)
  IC50: 2.51 ± 0.12 µM
[2]
  IC50: 3.55 ± 1.23 µM

## O=C(CCCCC(=O)c1ccccc1C(=O)O)c1ccccc1 [Str6318]
In vitro
  CC50 at 72 h: > 100 µM
HK/68 (H3N2)
  IC50: 11.2 ± 3.39 µM
[2]
  IC50: 28.6 ± 9.46 µM

## COc1c2oc3c(OC)ccc(C(=O)N[C@@H](Cc4ccccc4)C(=O)O)c3nc-2cc(N)c1=O [Str7374]
In vitro
  CC50 at 72 h: > 100 µM
HK/68 (H3N2)
  IC50: 55.4 ± 27 µM
[2]
  IC50: 31.9 ± 8.15 µM

## O=C(O)[C@H]1C2CCC(CC2)[C@@H]1Nc1nc(-c2c[nH]c3ncc(F)cc23)ncc1F [VX-787, reference compound]
In vitro
  CC50: > 100 µM
HK/68 (H3N2)
  IC50: 0.09 ± 0.02 µM
[2]
  IC50: 0.004 ± 0.001 µM

## C[n+]1cn(CCCCC(=O)O)c2nc(CCCCCC(=O)O)nc([O-])c21 [g]
H3N2 influenza virus
  IC50: 5.3 µM

## Cc1nc([O-])c2c(n1)n(CC(=O)c1ccc(O)c(C(=O)O)c1)c[n+]2C [h]
H3N2 influenza virus
  IC50: 0.6 µM

## Cc1nc([O-])c2c(n1)n(CC(=O)c1ccc(O)c(C(N)=O)c1)c[n+]2C [i]
H3N2 influenza virus
  IC50: 7.5 µM

From publication PMC8623395, “Virtual Screening and Molecular Dynamics Simulation Study of Influenza Polymerase PB2 Inhibitors” (Molecules, 2021)
